From patent publication US10011629B2, “Nucleoside analogs for treatment of the flaviviridae family of viruses and cancer” (Cocrystal Pharma, Inc., priority 2015, dated 2018) come the findings set out here.

The nature of data set [1]: Cellular toxicity assay in PBM cells. It counts as cell-based. The note with it: human; for CC50: read-out: Cytotoxicity, CC50; for cytotoxicity: value in parentheses after CC50, read-out: Cytotoxicity (% inhibition). The protocol: (§1) The toxicity of the compounds was assessed in Vero, human PBM, CEM (human lymphoblastoid), MT-2, and HepG2 cells, as described previously (see Schinazi R. F., Sommadossi J.-P., Saalmann V., Cannon D. L., Xie M.-Y., Hart G. C., Smith G. A. & Hahn E. F. Antimicrob. Agents Chemother. 1990, 34, 1061-67).
(§2) Cycloheximide was included as positive cytotoxic control, and untreated cells exposed to solvent were included as negative controls. The cytotoxicity IC50 was obtained from the concentration-response curve using the median effective method described previously (see Chou T.-C. & Talalay P. Adv. Enzyme Regul. 1984, 22, 27-55; Belen′kii M. S. & Schinazi R. F. Antiviral Res. 1994, 25, 1-11).

Data set [2] can be described thus: Cellular toxicity assay in CEM cells. The format is cell-based. Conditions: human; for CC50: read-out: Cytotoxicity, CC50; for cytotoxicity: value in parentheses after CC50, read-out: Cytotoxicity (% inhibition). The protocol:
as §1, §2

Data set [3] is described as follows: Cellular toxicity assay in Vero cells. The format is cell-based. Conditions: African green monkey; for CC50: read-out: Cytotoxicity, CC50; for cytotoxicity: value in parentheses after CC50, read-out: Cytotoxicity (% inhibition). The protocol: as §1, §2
Data set [4] has as its system HepaRG cells. Nature of the data set: HepaRG 14-day cell viability assay (CellTiter-Glo). The note with it: 14 days with 4 repeat doses. The format is cell-based. The protocol: IC50 in HepaRG Cells for a 14-Day Assay (Non-Proliferating Liver Cells) Using Cell Titer GLO
HepaRG cells are plated one week prior to dosing to allow for the cells to regain its maximal metabolic activity and structure. HepaRG cells are dosed with increasing concentrations of the test compound (final DMSO concentration=0.5%); final test compound concentrations of 100, 30, 10, 3, 1, 0.3, 0.1, 0.03 μM for an eight point dose response curve (n=3 replicates per concentration) and the microtissues are incubated for 14 days with 4 repeat doses. Appropriate controls are simultaneously used as quality controls. Following the dosing period the medium is removed the cell viability is determined using CellTiter-Glo® reagent. The test sample is subsequently transferred to designated wells of a white assay plate and the luminescence determined using a luminometer.
IC50 values are also determined provided a clear dose-response relationship is observed.

Data set [5] relates to mitochondrial DNA (COXII gene) in HepG2 cells. The experiment in a line: Mitochondrial DNA level in HepG2 cells (real-time PCR). Conditions: for % inhibition MitDNA / IC50: HepG2 cells, 14-day assay; for % inhibition MitDNA: 10 μM; for IC50: read-out: IC50 MitDNA. The protocol:
This assay was used in all studies described in this application that determine the effect of compounds on mitochondrial DNA content. In this assay, low-passage-number HepG2 cells were seeded at 5,000 cells/well in collagen-coated 96-well plates. Test compounds were added to the medium to obtain final concentrations of 0 μM, 0.1 μM, 10 μM and 100 μM. […] The mitochondrial cytochrome c oxidase subunit II (COXII) gene and the ß-actin or rRNA gene were amplified from 5 μl of the eluted nucleic acids using a multiplex Q-PCR protocol with suitable primers and probes for both target and reference amplifications. […] For exon 3 of the ß-actin gene (GenBank accession number E01094) the sense, probe, and antisense primers are 5′-[…]-3′ (SEQ ID NO. 4), 5′-6-[…]-3′ (SEQ ID NO. 5) and 5′-[…]-3′ (SEQ ID NO. 6), respectively. The primers and probes for the rRNA gene are commercially available from Applied Biosystems. […] The arithmetic formula for this approach is given by 2-ΔΔCT, where ΔΔCT is (CT for average target test sample−CT for target control)−(CT for average reference test−CT for reference control) (see Johnson M R, K Wang, J B Smith, M J Heslin, R B Diasio. Quantitation of dihydropyrimidine dehydrogenase expression by real-time reverse transcription polymerase chain reaction. Anal. Biochem. 2000; 278:175-184). A decrease in mitochondrial DNA content in cells grown in the presence of drug indicated mitochondrial toxicity.

Data set [6] deals with nuclear DNA (ß-actin or rRNA gene) in HepG2 cells. Nature of the data set: Nuclear DNA level in HepG2 cells (real-time PCR). It counts as cell-based, human. The note with it: HepG2 cells, 14-day assay; for % inhibition nDNA: 10 μM; for IC50: read-out: IC50 nDNA. The protocol:
This assay was used in all studies described in this application that determine the effect of compounds on mitochondrial DNA content. In this assay, low-passage-number HepG2 cells were seeded at 5,000 cells/well in collagen-coated 96-well plates. Test compounds were added to the medium to obtain final concentrations of 0 μM, 0.1 μM, 10 μM and 100 μM. […] The mitochondrial cytochrome c oxidase subunit II (COXII) gene and the ß-actin or rRNA gene were amplified from 5 μl of the eluted nucleic acids using a multiplex Q-PCR protocol with suitable primers and probes for both target and reference amplifications. […] For exon 3 of the ß-actin gene (GenBank accession number E01094) the sense, probe, and antisense primers are 5′-[…]-3′ (SEQ ID NO. 4), 5′-6-[…]-3′ (SEQ ID NO. 5) and 5′-[…]-3′ (SEQ ID NO. 6), respectively. The primers and probes for the rRNA gene are commercially available from Applied Biosystems. […] The comparative CT method uses arithmetic formulas in which the amount of target (COXII gene) is normalized to the amount of an endogenous reference (the B-actin or rRNA gene) and is relative to a calibrator (a control with no drug at day 7). The arithmetic formula for this approach is given by 2-ΔΔCT, where ΔΔCT is (CT for average target test sample−CT for target control)−(CT for average reference test−CT for reference control) (see Johnson M R, K Wang, J B Smith, M J Heslin, R B Diasio. Quantitation of dihydropyrimidine dehydrogenase expression by real-time reverse transcription polymerase chain reaction. Anal. Biochem. 2000; 278:175-184). A decrease in mitochondrial DNA content in cells grown in the presence of drug indicated mitochondrial toxicity.
In general terms: Real-time PCR tracks product formation cycle by cycle.

The subject of data set [7] is HepG2 cells. Nature of the data set: Lactic acid production in HepG2 cells. The format is cell-based, human. Conditions: 14-day assay, 10 μM. The protocol:
To measure the effects of the compounds on lactic acid production, HepG2 cells from a stock culture were diluted and plated in 12-well culture plates at 2.5×10^4 cells per well. […] […] The culture medium was then filtered, and the lactic acid content in the medium was determined using a colorimetric lactic acid assay (Sigma-Aldrich). Since lactic acid product can be considered a marker for impaired mitochondrial function, elevated levels of lactic acid production detected in cells grown in the presence of test compounds would indicate a drug-induced cytotoxic effect.

In data set [8] the test system is HCV 1b (Huh 7 Clone B cells containing HCV Replicon RNA). The experiment in a line: HCV replicon assay. It counts as cell-based. The note with it: HCV 1b replicon; for EC50 / EC90: Hepatitis C virus, Huh-7, letter value; for EC50: read-out: EC50 (μM or letter value); for EC90: read-out: EC90 (μM or letter value) or % inhib HCV. As for the experimental part: Huh 7 Clone B cells containing HCV Replicon RNA were seeded in a 96-well plate at 5000 cells/well, and the compounds tested at 10 μM in triplicate immediately after seeding. Following five days incubation (37° C., 5% CO2), total cellular RNA was isolated by using versaGene RNA purification kit from Gentra. Replicon RNA and an internal control (TaqMan rRNA control reagents, Applied Biosystems) were amplified in a single step multiplex Real Time RT-PCR Assay. The antiviral effectiveness of the compounds was calculated by subtracting the threshold RT-PCR cycle of the test compound from the threshold RT-PCR cycle of the no-drug control (ΔCt HCV). A ΔCt of 3.3 equals a 1-log reduction (equal to 90% less starting material) in Replicon RNA levels. The cytotoxicity of the compounds was also calculated by using the ΔCt rRNA values. 2′-C-Me-C was used as the positive control. To determine EC90 and IC50 values^2, ΔCt: values were first converted into fraction of starting material^3 and then were used to calculate the % inhibition. […]
(In general: A replicon is a self-replicating genome or part of one, used to study replication in cells.)

Regarding `O=c1ccn([C@@H]2O[C@H](CO)[C@@H](O)[C@]2(F)Br)c(=O)[nH]1`, the cytotoxic concentration (CC50) in data set [1], in data set [2] (CEM lymphoblastoid cells) and in data set [3] was more than 100 µM throughout. The figures for the cytotoxicity in data set [1], in data set [2] (CEM lymphoblastoid cells) and in data set [3] were -24%, 21% and 4.2%, respectively.

For the molecule `CC(C)OC(=O)[C@H](C)NP(=O)(OC[C@H]1O[C@@H](n2ccc(=O)[nH]c2=O)C(F)(Br)C1O)Oc1ccccc1` (some centres unmarked), the CC50 in data set [1], in data set [2] and in data set [3] was more than 100 µM in each case. Also, the cytotoxicity in data set [1] was -3.8%; in data set [2] it was 14%; in data set [3], 2.6%.

In the case of `N#CC(C#N)=NNc1cccc(Cl)c1` [Carbonyl cyanide m-chlorophenyl hydrazone, reference compound], the IC50 in data set [4] (Homo sapiens, 336 h) stood at 5.08 µM.

As for `Nc1ccn([C@@H]2CS[C@H](CO)O2)c(=O)n1` [Compound 3TC, reference compound], in data set [5], the “% inhibition MitDNA” value is 33.3% and the IC50 is more than 10 µM. Further, in data set [6], the “% inhibition nDNA” value came to 26.8% and the half-inhibitory concentration (IC50) was more than 10 µM. The “Lactic acid Production (% of control)” value in data set [7] is 94.9 ± 12.2 % of control.

With `CC(C)OC(=O)[C@H](C)NP(=O)(OC[C@H]1O[C@@H](n2ccc(N)nc2=O)[C@](F)(Br)[C@@H]1O)Oc1ccccc1` (stereo partly drawn) [Compound 21, Isopropyl ((((2R,3R,4R,5R)-5-(4-amino-2-oxopyrimidin-1(2H)-yl)-4-bromo-4-fluoro-3-hydroxytetrahydrofuran-2-yl)methoxy)(phenoxy)phosphoryl)-L-alaninate], the “EC50 (μM or letter value): value printed as % @ 10 μM” value in data set [8] (10 μM) is on record as 67.9% @ 10 μM.

On to `CC(C)OC(=O)[C@H](C)N[P@@](=O)(OC[C@H]1O[C@@H](n2ccc(=O)[nH]c2=O)[C@@](F)(Br)C1O)Oc1ccccc1` (some centres unmarked) [Compound 22], for which, in data set [8], the EC50 lay in the range of 0.1 to 1 µM and the EC90 is 1 to 10 µM. The IC50 in data set [4] (Homo sapiens, 336 h) was 7.18 µM.

In the case of `CC(C)OC(=O)[C@H](C)N[P@](=O)(OC[C@H]1O[C@@H](n2ccc(=O)[nH]c2=O)[C@@](F)(Br)C1O)Oc1ccccc1` (some centres unmarked) [Compound 23], in data set [8], the 50% effective concentration (EC50) lay within 0.1 to 1 µM and the 90% effect concentration (EC90) was 0.1 to 1 µM. The molecule further came in with an IC50 in data set [4] (Homo sapiens, 336 h) of 35 µM.

On to `Nc1ccn([C@H]2CC[C@@H](CO)O2)c(=O)n1` [ddc, reference compound], for which, in data set [5], the “Summary (mitochondrial toxicity)” value is reported as “toxic”, the “% inhibition MitDNA” value came to 99.9% and the IC50 was less than 10 µM. In data set [6], the “% inhibition nDNA” value was 88.7% and the concentration for half-maximal inhibition (IC50) was less than 10 µM. For the same molecule, the “Lactic acid Production (% of control)” value in data set [7] is given as 267 ± 25.2 % of control.

The molecule Tunicamycin [reference compound] came in with an IC50 in data set [4] of 0.011 µM.

A word on the CC50: it is the concentration giving 50% cytotoxicity. As a reminder, the IC50 is the concentration needed to halve the response being measured. By EC50 is commonly meant the concentration giving half of the maximal effect. The EC90 is the concentration at which the effect reaches the 90% level.
